Assay results as given in patent US10670605B2, “Cysteine reactive probes and uses thereof” (The Scripps Research Institute, priority 2015, dated 2020).
Values belong to the molecule of their own block, whether it stands above or below them.

Assays:
Test in all cases: Competitive isoTOP-ABPP, cell lysates
Format in all cases: binding
ACAT1 C126 (P24752) = biological target: T1, ACAT1 C126 (P24752) (Homo sapiens, UniProt P24752); details: for isoTOP-ABPP ratio, P24752_C126: 500 μM, invitro; for R value (DMSO/fragment): 250 μM, in vitro
T1 sequence (P24752 34-427): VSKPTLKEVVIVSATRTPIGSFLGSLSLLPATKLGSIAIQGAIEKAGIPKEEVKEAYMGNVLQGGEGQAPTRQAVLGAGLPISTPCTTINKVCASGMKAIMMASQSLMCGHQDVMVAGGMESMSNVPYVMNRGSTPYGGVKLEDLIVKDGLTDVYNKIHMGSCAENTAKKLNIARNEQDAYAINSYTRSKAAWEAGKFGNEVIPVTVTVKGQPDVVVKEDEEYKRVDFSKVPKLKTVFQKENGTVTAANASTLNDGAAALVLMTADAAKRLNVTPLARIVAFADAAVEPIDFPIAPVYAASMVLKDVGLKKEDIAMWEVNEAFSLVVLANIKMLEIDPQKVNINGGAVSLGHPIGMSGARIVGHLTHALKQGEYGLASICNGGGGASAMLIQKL

ACAT1 C196 (P24752) = biological target: T2, ACAT1 C196 (P24752) (Homo sapiens, UniProt P24752); details: for isoTOP-ABPP reactivity ratio, P24752_C196 / isoTOP-ABPP reactivity profile ratio, P24752_C196: 500 μm; for isoTOP-ABPP ratio, P24752_C196: 500 μM, invitro; for R value (DMSO/fragment): 250 μM, in vitro
T2 sequence (P24752 34-427): T1 sequence (P24752 34-427)

ACAT1 C413 (P24752) = biological target: T3, ACAT1 C413 (P24752) (Homo sapiens, UniProt P24752); details: for isoTOP-ABPP ratio P24752_C413: 500 μM, invitro
T3 sequence (P24752 34-427): T1 sequence (P24752 34-427)

UCHL3 C95 (P15374) = biological target: T4, UCHL3 C95 (P15374) (Homo sapiens, UniProt P15374); details: for isoTOP-ABPP ratio, P15374_C95: 500 μM, invitro, ramos
T4 sequence (P15374 1-230): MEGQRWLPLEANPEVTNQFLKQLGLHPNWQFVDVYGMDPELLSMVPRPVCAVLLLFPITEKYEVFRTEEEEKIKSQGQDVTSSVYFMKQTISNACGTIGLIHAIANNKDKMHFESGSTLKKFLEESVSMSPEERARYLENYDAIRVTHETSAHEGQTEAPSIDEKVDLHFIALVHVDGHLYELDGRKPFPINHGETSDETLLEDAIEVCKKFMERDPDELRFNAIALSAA

PCK2 C306 (Q16822) = biological target: T5, PCK2 C306 (Q16822) (Homo sapiens, UniProt Q16822); details: for isoTOP-ABPP ratio, Q16822_C306: 500 μM, invitro
T5 sequence (Q16822 33-640): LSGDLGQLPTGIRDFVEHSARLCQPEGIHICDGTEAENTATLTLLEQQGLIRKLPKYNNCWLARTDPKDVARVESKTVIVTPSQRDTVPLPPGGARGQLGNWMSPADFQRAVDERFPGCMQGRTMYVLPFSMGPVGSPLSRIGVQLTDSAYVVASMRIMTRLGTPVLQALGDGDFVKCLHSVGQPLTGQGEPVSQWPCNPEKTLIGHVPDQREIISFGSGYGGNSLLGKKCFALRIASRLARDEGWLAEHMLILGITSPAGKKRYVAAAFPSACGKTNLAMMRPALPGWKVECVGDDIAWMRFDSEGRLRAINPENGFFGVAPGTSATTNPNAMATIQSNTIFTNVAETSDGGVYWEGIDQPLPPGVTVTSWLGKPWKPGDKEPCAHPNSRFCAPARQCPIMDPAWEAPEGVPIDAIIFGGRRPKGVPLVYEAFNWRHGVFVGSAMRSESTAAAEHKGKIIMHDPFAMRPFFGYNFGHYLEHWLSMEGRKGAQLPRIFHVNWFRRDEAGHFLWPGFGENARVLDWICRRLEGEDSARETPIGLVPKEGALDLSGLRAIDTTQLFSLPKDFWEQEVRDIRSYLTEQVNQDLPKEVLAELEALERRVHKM

UBE2S C118 (Q16763) = biological target: T6, UBE2S C118 (Q16763) (Homo sapiens, UniProt Q16763); details: for isoTOP-ABPP ratio, Q16763_C118: 500 μM, invitro, ramos
T6 sequence (Q16763 1-222): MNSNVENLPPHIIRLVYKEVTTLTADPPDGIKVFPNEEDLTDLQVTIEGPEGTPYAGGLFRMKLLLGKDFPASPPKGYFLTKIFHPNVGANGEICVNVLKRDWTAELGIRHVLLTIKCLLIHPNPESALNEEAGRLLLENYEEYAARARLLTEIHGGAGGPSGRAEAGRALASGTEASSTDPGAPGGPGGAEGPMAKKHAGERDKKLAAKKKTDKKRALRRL

SMARCC2 C145 (Q8TAQ2) = SMARCC2 C145 (Q8TAQ2) (Homo sapiens, UniProt Q8TAQ2); details: for isoTOP-ABPP ratio Q8TAQ2_C145: 500 μM, invitro
Sequence of SMARCC2 C145 (Q8TAQ2) (Q8TAQ2 whole entry): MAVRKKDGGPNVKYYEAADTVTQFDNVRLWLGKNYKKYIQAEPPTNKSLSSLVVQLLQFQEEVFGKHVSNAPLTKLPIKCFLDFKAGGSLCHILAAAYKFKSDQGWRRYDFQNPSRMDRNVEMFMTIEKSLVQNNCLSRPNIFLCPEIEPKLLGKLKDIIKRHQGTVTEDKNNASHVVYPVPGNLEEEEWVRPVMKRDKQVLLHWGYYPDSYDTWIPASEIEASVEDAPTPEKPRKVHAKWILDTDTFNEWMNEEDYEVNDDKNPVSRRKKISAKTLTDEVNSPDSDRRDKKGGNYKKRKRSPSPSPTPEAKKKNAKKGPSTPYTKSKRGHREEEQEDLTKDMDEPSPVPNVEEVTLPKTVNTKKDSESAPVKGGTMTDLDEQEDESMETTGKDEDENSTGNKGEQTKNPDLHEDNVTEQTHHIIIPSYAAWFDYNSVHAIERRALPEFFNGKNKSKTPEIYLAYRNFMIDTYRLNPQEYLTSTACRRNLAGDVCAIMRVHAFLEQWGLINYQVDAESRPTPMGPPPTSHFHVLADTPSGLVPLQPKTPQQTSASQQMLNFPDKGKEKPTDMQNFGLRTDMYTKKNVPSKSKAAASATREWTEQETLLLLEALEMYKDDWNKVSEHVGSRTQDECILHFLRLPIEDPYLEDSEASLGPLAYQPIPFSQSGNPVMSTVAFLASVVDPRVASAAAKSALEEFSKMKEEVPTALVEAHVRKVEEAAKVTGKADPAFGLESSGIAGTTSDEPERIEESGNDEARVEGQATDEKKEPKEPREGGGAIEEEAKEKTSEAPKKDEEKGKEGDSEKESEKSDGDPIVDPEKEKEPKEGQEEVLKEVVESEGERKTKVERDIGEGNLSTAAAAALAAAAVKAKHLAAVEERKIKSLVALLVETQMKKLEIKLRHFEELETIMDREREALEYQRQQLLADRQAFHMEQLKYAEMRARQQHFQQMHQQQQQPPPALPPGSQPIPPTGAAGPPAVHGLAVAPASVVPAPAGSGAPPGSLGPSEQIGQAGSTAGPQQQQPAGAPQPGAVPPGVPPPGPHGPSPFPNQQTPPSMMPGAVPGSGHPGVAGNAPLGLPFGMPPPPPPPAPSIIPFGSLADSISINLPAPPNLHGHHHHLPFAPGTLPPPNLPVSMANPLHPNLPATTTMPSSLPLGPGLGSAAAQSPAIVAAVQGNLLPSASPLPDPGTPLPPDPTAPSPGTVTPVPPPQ

isoTOP-ABPP reactivity ratio, P24752_C126 (ACAT1 C126 (P24752); 500 μm, in-vitro_ramos): 0.9
isoTOP-ABPP reactivity ratio, P24752_C126 (ACAT1 C126 (P24752); 500 μm, in-vitro_ramos_231): 1.0
isoTOP-ABPP reactivity ratio, P24752_C196 (ACAT1 C196 (P24752); in-vitro_ramos): 1.0
isoTOP-ABPP reactivity ratio, P24752_C196 (ACAT1 C196 (P24752); in-vitro_ramos_231): 1.3
isoTOP-ABPP reactivity ratio, P24752_C413 (ACAT1 C413 (P24752); 500 μm, in-vitro_ramos): 0.9
isoTOP-ABPP reactivity ratio, P24752_C413 (ACAT1 C413 (P24752); 500 μm, in-vitro_ramos_231): 0.8
isoTOP-ABPP reactivity ratio, P15374_C95 (UCHL3 C95 (P15374); 500 μm, in-vitro_ramos): 0.8
isoTOP-ABPP reactivity ratio, P15374_C95 (UCHL3 C95 (P15374); 500 μm, in-vitro_ramos_231): 1.0
isoTOP-ABPP reactivity ratio, Q16822_C306 (PCK2 C306 (Q16822); 500 μm, in-vitro_ramos): 1.0
isoTOP-ABPP reactivity ratio, Q16822_C306 (PCK2 C306 (Q16822); 500 μm, in-vitro_ramos_231): 1.2
isoTOP-ABPP reactivity ratio, Q16763_C118 (UBE2S C118 (Q16763); 500 μm, in-vitro_ramos): 3.4
isoTOP-ABPP reactivity ratio, Q8TAQ2_C145 (SMARCC2 C145 (Q8TAQ2); 500 μm, in-vitro_ramos): 2.8
isoTOP-ABPP reactivity ratio, Q8TAQ2_C145 (SMARCC2 C145 (Q8TAQ2); 500 μm, in-vitro_ramos_231): 1.8
Structure (SMILES): Cc1ccc(C=C(C#N)C(=O)NCCN2CCOCC2)cc1 [compound 41]

isoTOP-ABPP reactivity profile ratio, P24752_C126 (ACAT1 C126 (P24752); 500 μm, in-vitro_ramos): 20.0
isoTOP-ABPP reactivity profile ratio, P24752_C196 (ACAT1 C196 (P24752); in-vitro_ramos): 2.3
isoTOP-ABPP reactivity profile ratio, P24752_C196 (ACAT1 C196 (P24752); in-vitro_ramos_231): 2.4
isoTOP-ABPP reactivity profile ratio, P24752_C413 (ACAT1 C413 (P24752); 500 μm, in-vitro_ramos_231): 15.9
isoTOP-ABPP reactivity profile ratio, P15374_C95 (UCHL3 C95 (P15374); 500 μm, in-vitro_ramos): 20.0
isoTOP-ABPP reactivity profile ratio, Q16822_C306 (PCK2 C306 (Q16822); 500 μm, in-vitro_ramos_231): 3.3
isoTOP-ABPP reactivity profile ratio, Q16763_C118 (UBE2S C118 (Q16763); 500 μm, in-vitro_ramos): 1.0
isoTOP-ABPP reactivity profile ratio, Q8TAQ2_C145 (SMARCC2 C145 (Q8TAQ2); 500 μm, in-vitro_ramos_231): 20.0
Structure (SMILES): COc1cc(NC(=O)CCl)cc(OC)c1 [compound 43]

isoTOP-ABPP ratio, P24752_C126 (ACAT1 C126 (P24752); 231): 9.6
isoTOP-ABPP ratio, P24752_C126 (ACAT1 C126 (P24752); ramos): 20.0
isoTOP-ABPP ratio, P24752_C196 (ACAT1 C196 (P24752); 231): 1.6
isoTOP-ABPP ratio, P24752_C196 (ACAT1 C196 (P24752); ramos): 1.7
isoTOP-ABPP ratio P24752_C413 (ACAT1 C413 (P24752); 231): 5.5
isoTOP-ABPP ratio P24752_C413 (ACAT1 C413 (P24752); ramos): 7.3
isoTOP-ABPP ratio, P15374_C95 (UCHL3 C95 (P15374)): 0.8
isoTOP-ABPP ratio, Q16822_C306 (PCK2 C306 (Q16822); 231): 0.9
isoTOP-ABPP ratio, Q16822_C306 (PCK2 C306 (Q16822); ramos): 1.0
isoTOP-ABPP ratio, Q16763_C118 (UBE2S C118 (Q16763)): 0.7
isoTOP-ABPP ratio Q8TAQ2_C145 (SMARCC2 C145 (Q8TAQ2); ramos): 0.8
Structure (SMILES): O=C(CCl)NCCc1c[nH]c2ccccc12 [compound 13]

The remaining lines, values behind:

Structure (SMILES): O=C(CCl)N1CCC(C(O)(c2ccccc2)c2ccccc2)CC1 [compound 20]
isoTOP-ABPP ratio (reactivity profile), P24752_C126 (ACAT1 C126 (P24752); 500 μm in-vitro ramos): 20.0
isoTOP-ABPP ratio (reactivity profile), P24752_C126 (ACAT1 C126 (P24752); 500 μm in-vitro ramos_231): 10.6
isoTOP-ABPP ratio (reactivity profile), P24752_C196 (ACAT1 C196 (P24752); 500 μm in-vitro ramos): 2.9
isoTOP-ABPP ratio (reactivity profile), P24752_C196 (ACAT1 C196 (P24752); 500 μm in-vitro ramos_231): 3.7
isoTOP-ABPP ratio (reactivity profile), P24752_C413 (ACAT1 C413 (P24752); 500 μm in-vitro ramos): 14.0
isoTOP-ABPP ratio (reactivity profile), P24752_C413 (ACAT1 C413 (P24752); 500 μm in-vitro ramos_231): 20.0
isoTOP-ABPP ratio (reactivity profile), P15374_C95 (UCHL3 C95 (P15374); 500 μm in-vitro ramos): 0.9
isoTOP-ABPP ratio (reactivity profile), P15374_C95 (UCHL3 C95 (P15374); 500 μm in-vitro ramos_231): 1.0
isoTOP-ABPP ratio (reactivity profile), Q16822_C306 (PCK2 C306 (Q16822); 500 μm in-vitro ramos): 1.6
isoTOP-ABPP ratio (reactivity profile), Q16822_C306 (PCK2 C306 (Q16822); 500 μm in-vitro ramos_231): 2.5
isoTOP-ABPP ratio (reactivity profile), Q16763_C118 (UBE2S C118 (Q16763); 500 μm in-vitro ramos): 2.9
isoTOP-ABPP ratio (reactivity profile), Q8TAQ2_C145 (SMARCC2 C145 (Q8TAQ2); 500 μm in-vitro ramos): 3.9
isoTOP-ABPP ratio (reactivity profile), Q8TAQ2_C145 (SMARCC2 C145 (Q8TAQ2); 500 μm in-vitro ramos_231): 2.9

Structure (SMILES): O=C(CCl)NC(=O)NC12CC3CC(CC(C3)C1)C2 [compound 12]
isoTOP-ABPP ratio, P24752_C126 (ACAT1 C126 (P24752); 231): 1.0
isoTOP-ABPP ratio, P24752_C126 (ACAT1 C126 (P24752); ramos): 1.1
isoTOP-ABPP ratio, P24752_C196 (ACAT1 C196 (P24752); 231): 1.2
isoTOP-ABPP ratio, P24752_C196 (ACAT1 C196 (P24752); ramos): 0.9
isoTOP-ABPP ratio P24752_C413 (ACAT1 C413 (P24752); 231): 1.5
isoTOP-ABPP ratio P24752_C413 (ACAT1 C413 (P24752); ramos): 1.1
isoTOP-ABPP ratio, P15374_C95 (UCHL3 C95 (P15374)): 0.5
isoTOP-ABPP ratio, Q16822_C306 (PCK2 C306 (Q16822); 231): 1.5
isoTOP-ABPP ratio, Q16822_C306 (PCK2 C306 (Q16822); ramos): 0.7
isoTOP-ABPP ratio, Q16763_C118 (UBE2S C118 (Q16763)): 0.6
isoTOP-ABPP ratio Q8TAQ2_C145 (SMARCC2 C145 (Q8TAQ2); 231): 2.8
isoTOP-ABPP ratio Q8TAQ2_C145 (SMARCC2 C145 (Q8TAQ2); ramos): 1.6

Structure (SMILES): COc1ccc(C2CC(c3cccs3)=NN2C(=O)CCl)cc1 (stereo not drawn) [compound 4]
R value (DMSO/fragment) (ACAT1 C126 (P24752); MDA-MB-231): 2.1
R value (DMSO/fragment) (ACAT1 C126 (P24752); Ramos): 1.2
R value (DMSO/fragment) (ACAT1 C196 (P24752); MDA-MB-231): 1.9
R value (DMSO/fragment) (ACAT1 C196 (P24752); Ramos): 0.5
R value (DMSO/fragment) (ACAT1 C413 (P24752); 250 μM, in vitro, MDA-MB-231): 3.3
R value (DMSO/fragment) (UCHL3 C95 (P15374); 250 μM, in vitro, Ramos): 0.9
R value (DMSO/fragment) (PCK2 C306 (Q16822); 250 μM, in vitro, MDA-MB-231): 2.2
R value (DMSO/fragment) (UBE2S C118 (Q16763); 250 μM, in vitro, MDA-MB-231): 1.2
R value (DMSO/fragment) (SMARCC2 C145 (Q8TAQ2); 250 μM, in vitro, MDA-MB-231): 1.3
